Data taken from ChEMBL document CHEMBL3638498, “Pharmaceutical compounds” (2014).

Molecular target: T1, Serine/threonine-protein kinase Chk1 (Homo sapiens, UniProt O14757)
T1 sequence (O14757 whole entry): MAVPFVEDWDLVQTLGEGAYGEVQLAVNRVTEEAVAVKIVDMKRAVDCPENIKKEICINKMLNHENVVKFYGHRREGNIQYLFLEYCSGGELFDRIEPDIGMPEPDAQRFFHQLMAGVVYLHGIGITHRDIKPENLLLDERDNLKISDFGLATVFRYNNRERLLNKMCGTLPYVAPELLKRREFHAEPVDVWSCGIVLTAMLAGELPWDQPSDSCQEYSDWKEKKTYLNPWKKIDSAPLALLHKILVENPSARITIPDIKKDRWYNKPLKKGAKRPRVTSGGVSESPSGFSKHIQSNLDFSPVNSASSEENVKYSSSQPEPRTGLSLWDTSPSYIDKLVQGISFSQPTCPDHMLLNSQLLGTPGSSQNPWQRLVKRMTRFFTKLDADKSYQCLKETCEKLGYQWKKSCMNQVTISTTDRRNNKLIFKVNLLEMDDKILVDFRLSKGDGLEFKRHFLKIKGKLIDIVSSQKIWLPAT
Experiment: Inhibiting Assay: The compounds of the invention were tested for activity against Chk-1 kinase using the materials and protocols set out below. Reaction Buffer: Base Reaction buffer: 20 mM Hepes (pH 7.5), 10 mM MgCl2, 1 mM EGTA, 0.02% Brij35, 0.02 mg/ml BSA, 0.1 mM Na3VO4, 2 mM DTT, 1% DMSO. Required cofactors are added individually to each kinase reaction Reaction Procedure:(i) Prepare indicated substrate in freshly prepared Base Reaction Buffer(ii) Deliver any required cofactors to the substrate solution above(iii) Deliver indicated kinase into the substrate solution and gently mix(iv) Deliver compounds in DMSO into the kinase reaction mixture(v) Deliver 33P-ATP (specific activity 0.01 μCi/μl final) into the reaction mixture to initiate the reaction.(vi) Incubate kinase reaction for 120 minutes at room temperature(vii) Reactions are spotted onto P81 ion exchange paper (Whatman #3698-915)(viii) Wash filters extensively in 0.1% phosphoric acid.(ix) Measure counts in scintillation counter.
Format: organism-based

## N#Cc1cnc(NC(=O)Nc2ccc(CCNCc3ccc(F)cc3)c(Br)c2)cn1
  IC50: 19 nM
